Results reported in patent US6492381B1, “Tricyclic carbamate compounds useful for inhibition of G-protein function and for treatment of proliferative diseases” (Schering Corp., priority 1993, dated 2002).

Legend:
[1] = tested on: T24-BAG4 human bladder carcinoma cells expressing an activated H-ras gene; experiment: Cell Mat assay: inhibition of tumor cell growth; format: cell-based; conditions: Homo sapiens, tIC50
Experimental: Normal human HEPM fibroblasts were planted in 3.5 cm dishes at a density of 5×10^4 cells/dish in 2 ml growth medium, and incubated for 3-5 d to achieve confluence. Medium was aspirated from each dish and the indicator tumor cells, T24-BAG4 human bladder carcinoma cells expressing an activated H-ras gene, were planted on top of the fibroblast monolayer at a density of 2×10^3cells/dish in 2 ml growth medium, and allowed to attach overnight. Compound-induced colony inhibition was assayed by addition of serial dilutions of compound directly to the growth medium 24 h after tumor cell planting, and incubating cells for an additional 14 d to allow colony formation. Assays were terminated by rinsing monolayers twice with phosphate-buffered saline (PBS), fixing the monolayers with a 1% glutaraldehyde solution in PBS, then visualizing tumor cells by staining with X-Gal (Price, J., et al., Lineage analysis in the vertebrate nervous system by retrovirus-mediated gene transfer, Proc. Natl. Acad. Sci.84, 156-160(1987)). […] Both IC50 values were obtained by determining the density of tumor cells and mat cells by visual inspection and enumeration of cells per colony and the number of colonies under the microscope. The therapeutic index of the compound was quantitatively expressed as the ratio of mIC50/tIC50, with values greater than one indicative of tumor target specificity.

[2] = molecular target: T1, farnesyl protein transferase (FPT) (Rattus norvegicus, UniProt Q02293+Q04631); experiment: In vitro enzyme assay: inhibition of farnesyl protein transferase; format: biochemical; conditions: Ras-CVLS farnesylation, partially purified rat brain FPT; read-out: FPT IC50
T1 construct: were partially purified from rat brain by ammonium sulfate fractionation followed by Q-Sepharose; from tissue; host or cells: rat brain
Experimental: (§1) 1. In vitro enzyme assays: Inhibition of farnesyl protein transferase and geranylgeranyl protein transferase.
Human farnesyl protein transferase was also expressed in E. coli, using cDNA clones encoding both the α and β subunits. […] Two forms of val^12-Ha-Ras protein were prepared as substrates for these enzymes, differing in their carboxy terminal sequence. One form terminated in cysteine-valine-leucine-serine (Ras-CVLS) the other in cystein-valine-leucine-leucine (Ras-CVLL). Ras-CVLS is a substrate for the farnesyl protein transferase while Ras-CVLL is a substrate for geranylgeranyl protein transferase I. The cDNAs encoding these proteins were constructed so that the proteins contain an amino-terminal extension of 6 histidine residues. Both proteins were expressed in Escherichia coli and purified using metal chelate affinity chromatography. The radiolabelled isoprenyl pyrophosphate substrates, [^3H]farnesyl pyrophosphate and [^3H]geranylgeranyl pyrophosphate, were purchased from DuPont/New England Nuclear.
The reaction was allowed to proceed for 30 minutes at room temperature and then stopped with 0.5 ml of 4% sodium dodecyl sulfate (SDS) followed by 0.5 ml of cold 30% trichloracetic acid (TCA). Samples were allowed to sit on ice for 45 minutes and precipitated Ras protein was then collected on GF/C filter paper mats using a Brandel cell harvester. […] Percent inhibition was calculated relative to the DMSO vehicle control.

[3] = molecular target: T2, geranylgeranyl protein transferase (GGPT) I (Rattus norvegicus, UniProt P53610+Q04631); experiment: In vitro enzyme assay: inhibition of geranylgeranyl protein transferase I; format: biochemical
T2 construct: were partially purified from rat brain by ammonium sulfate fractionation followed by Q-Sepharose; from tissue; host or cells: rat brain
Text: as §1
Both farnesyl protein transferase (FPT) and geranylgeranyl protein transferase (GGPT) I were partially purified from rat brain by ammonium sulfate fractionation followed by Q-Sepharose (Pharmacia, Inc.) anion exchange chromatography essentially as described by Yokoyama et al (Yokoyama, K., et al., (1991). A protein geranylgeranyltransferase from bovine brain: Implications for protein prenylation specificity, Proc. Natl. Acad. Sci USA 88: 5302-5306, the disclosure of which is incorporated herein by reference thereto). Human farnesyl protein transferase was also expressed in E. coli, using cDNA clones encoding both the α and β subunits. The methods used were similar to those published (Omer, C. et al., (1993), Characterization of recombinant human farnesyl protein transferase: Cloning, expression, farnesyl diphosphate binding, and functional homology with yeast prenyl-protein transferase, Biochemistry 32:5167-5176). Human farnesyl protein transferase was partially-purified from the soluble protein fraction of E. coli as described above. the tricyclic farnesyl protein transferase inhibitors disclosed herein inhibited both human and rat enzyme with similar potencies. Two forms of val^12-Ha-Ras protein were prepared as substrates for these enzymes, differing in their carboxy terminal sequence. One form terminated in cysteine-valine-leucine-serine (Ras-CVLS) the other in cystein-valine-leucine-leucine (Ras-CVLL). Ras-CVLS is a substrate for the farnesyl protein transferase while Ras-CVLL is a substrate for geranylgeranyl protein transferase I. The cDNAs encoding these proteins were constructed so that the proteins contain an amino-terminal extension of 6 histidine residues. Both proteins were expressed in Escherichia coli and purified using metal chelate affinity chromatography. The radiolabelled isoprenyl pyrophosphate substrates, [^3H]farnesyl pyrophosphate and [^3H]geranylgeranyl pyrophosphate, were purchased from DuPont/New England Nuclear.
The geranylgeranyl protein transferase I assay was essentially identical to the farnesyl protein transferase assay described above, with two exceptions: [^3H]geranylgeranylpyrophosphate replaced farnesyl pyrophosphate as the isoprenoid donor and Ras-CVLL was the protein acceptor. This is similar to the assay reported by Casey et al (Casey, P. J., et al., (1991), Enzymatic modification of proteins with a geranylgeranyl isoprenoid, Proc. Natl. Acad. Sci, USA 88: 8631-8635, the disclosure of which is incorporated herein by reference thereto).

[4] = tested on: M27 [mouse Lewis lung carcinoma]; experiment: In vivo anti-tumor study, M27 s.c. tumor; conditions: po
Text: In Vivo Anti-Tumor Studies
Tumor cells (5×10^5 to 8×10^6 of M27 [mouse Lewis lung carcinoma], A431 [human epidermal carcinoma] or SW620 [human colon adenocarcinoma (lymph node metastasis)]) are innoculated subcutaneously into the flank of 5-6 week old athymic nu/nu female mice. For the C-f-1 [mouse fibroblast transformed with c-fos oncogene] tumor model, 2 mm^3 tumor fragments are transplanted subcutaneously into the flank of 5-6 week old athymic nu/nu female mice. Tumor bearing animals are selected and randomized when the tumors are established. Animals are treated with vehicle (beta cyclodextran for i.p. or corn oil for p.o.) only or compounds in vehicle twice a day (BID) for 5 (1-5) or 7 (1-7) days per week for 2 (×2) or 4 (×4) weeks. The percent inhibition of tumor growth relative to vehicle controls are determined by tumor measurements.

CCOC(=O)N1CCC(C2(F)c3ccc(Cl)cc3CCc3cccnc32)CC1 (stereo not drawn) [Compound 530.00]
IC50 [1]: 12.5 µM | IC50 [2]: 3.7 µM | selective for FPT inhibition (versus GGPT) ([3]; FPT versus GGPT): at least 13 fold | activity against GGPT ([3]; at 49 μM): inactive | average % tumor inhibition ([4]; M27, 100 MPK, 14/wk, ×4): 37% | % Inhibition (tumor growth relative to vehicle controls) ([4]; M27 s.c. in athymic nu/nu mice, BID, 1-7, × 4): 49%
